From patent publication US20030032674A1, “Use of unsaturated fatty acids to treat severe inflammatory diseases” (priority 2001, published 2003)

How the values were obtained:
[1] = system: COX-2 expression; assay: COX-2 immunoblot (Western blot) in RAW 264.7 cells; format: cell-based, murine; details: RAW 264.7; 75 μM fatty acid
Method: (§1) Cell culture—RAW 264.7 cells (a murine macrophage-like cell line, ATCC TIB-71), 293T cells (a human embryonic kidney cell line, provided by Sam Lee, Beth Israel Hospital. Boston, Mass.), and HT-29 cells (a human colon adenocarcinoma cell line, ATCC HTB-38) were cultured in Dulbecco's modified Eagle's medium (DMEM) containing 10% (v/v) heat-inactivated fetal bovine serum (FBS, Intergen) and 100 units/ml Penicillin and […] Streptomycin (GIBCO-BRL) at 37° C. in a 5% CO2/air environment. Cells (2×10^6) were plated in 60-mm dishes and cultured for an additional 18 hours to allow the number of cells to approximately double. Cells were maintained in serum-poor (0.25% FBS) medium for another 18 hours prior to the treatment with indicated reagents.
Preparation of fatty acids-albumin complexes—All fatty acids were solubilized in ethanol, and then combined with fatty acid-free and low-endotoxin BSA at a molar ratio of 10:1 (fatty acid: albumin) in serum-poor medium (0.25% FBS). Fatty acids-albumin complex solution was freshly prepared prior to each experiment.
Sodium dodecyl sulfate-polyacrylamide gel electrophoresis (SDS-PAGE) and immunoblotting—These procedures were performed as previously described in D. Hwang et al., “Expression of mitogen-inducible cyclooxygenase induced by lipopolysaccharide: mediation through both mitogen-activated protein kinase and NF-kappaB signaling pathways in macrophages,” Biochem. Pharmacol., vol. 54, pp. 87-96 (1997). Briefly, solubilized proteins were subjected to 8% SDS-PAGE for COX-2, iNOS, IL- 1α and GAPDH immunoblot analyses. Following electrophoresis, the gel was transferred to a PVDF membrane and the membrane was blocked to prevent non-specific binding of antibodies in TBS-T [20 mM Tris HCl, 137 mM NaCl, 0.05% (v/v) Tween 20, pH 7.6] containing 5% non-fat dried milk (Carnation). Immunoblotting was performed using respective polyclonal antibodies followed by incubation with anti-rabbit IgG coupled to horseradish peroxidase. The membrane was exposed on an X-ray film (Kodak) using ECL western blot detection reagents (Amersham).
After 11 h, cell lysates were analyzed by COX-2, iNOS, IL-1α, or GAPDH immunoblot using a Western blot analysis.
The cell lysates were analyzed by COX-2 or GAPDH immunoblot.
RAW 264.7 cells were pretested with various concentrations (5, 10, 20, and 50 μM) of docosahexaenoic acid (C22:6n-3) for 3 hours, and then stimulated with LPS (100 ng/ml) for 8 hours and analyzed by COX-2, iNOS, IL-1 a or GAPDH immunoblot.
Cells stably transfected with NFκB(5×) or COX-2 promoter reporter genes were pretreated with various concentrations of each fatty acid for 3 hrs. Cells were then treated with LPS (200 ng/ml). After 8 hrs, cell lysates were prepared and luciferase activities were determined. Data are expressed as a percentage of LPS treatment alone. The results for NFκB and COX-2 expression are given in FIGS. 8A and 8B, respectively. The values are mean±SEM (n=3) of RLA, relative luciferase activity. In FIG. 8C, the cells were pretreated with DHA (20 μM) or C12:0 (75 μM) for 3 hrs and further stimulated with LPS (200 ng/ml for DHA; 1 ng/ml for C12:0). After 8 hr, cell lysates were analyzed by COX-2 and actin immunoblotting.

[2] = system: MyD88(CA); assay: NFκB reporter in 293T cells transfected with constitutively active MyD88; format: cell-based, human
Excerpt: Plasmids and DNA Constructs—All plasmids and constructs were obtained or made as reported in either S. H. Rhee and D. Hwang, “Murine TOLL-like receptor 4 confers lipopolysaccaride responsiveness as determined by activation of NFκB and expression of the inducible cyclooxygenase,” Journal of Biological Chemistry, vol. 275, pp. 34035-34040 (2000); and J. Y. Lee et al., “Saturated fatty acids, but not unsaturated fatty acids, induce the expression of cyclooxygenase-2 mediated through TOLL-like receptor 4,” Journal of Biological Chemistry, vol. 276, pp. 16683-16689 (2001). Briefly, the luciferase reporter plasmids (pGL2) containing the promoter region of the murine COX-2 gene (−3201/+93 or −1017/+93) were provided by David Dewitt (Michigan State University, East Lansing, Mich.). To prepare the wild-type COX-2 promoter fragment, polymerase chain reaction (PCR) was performed with the primers named Kpn-COX2-For and Hind-COX2-Rev using the murine COX-2 (−1017/+93) luciferase reporter plasmid as a template. To prepare the mutant COX-2 promoter fragment containing mutated NFκB site, Kpn-COX2-Fmut and Hind-COX2-Rev were used as primers. Each PCR fragment was inserted into the KpnI and HindIII sites of pGL2 to generate the wild-type or mutant COX-2 (−410/+86) luciferase reporter constructs, respectively. Sequences for wild-type NFκB site and the primers were used as reported elsewhere. […]

[3] = system: COX-2 expression; assay: COX-2 immunoblot in TNFα-treated HT-29 colon cancer cells; format: cell-based, human; details: pretreated 3 hours, TNFα 20 ng/ml 8 hours
Method: as §1
Sodium dodecyl sulfate-polyacrylamide gel electrophoresis (SDS-PAGE) and immunoblotting—These procedures were performed as previously described in D. Hwang et al., “Expression of mitogen-inducible cyclooxygenase induced by lipopolysaccharide: mediation through both mitogen-activated protein kinase and NF-kappaB signaling pathways in macrophages,” Biochem. Pharmacol., vol. 54, pp. 87-96 (1997). […]
Colon cancer cells (HT-29) were pretested with various concentrations of docosahexaenoic acid (C22:6n-3) for 3 hours and then treated with TNFα (20 ng/ml) for 8 hours. Cell lysates were analyzed by COX-2 and GAPDH immunoblot.

[4] = molecular target: T1, COX-2 (Ovis aries, UniProt P79208); details: cited from earlier work
T1 sequence (P79208 17-603): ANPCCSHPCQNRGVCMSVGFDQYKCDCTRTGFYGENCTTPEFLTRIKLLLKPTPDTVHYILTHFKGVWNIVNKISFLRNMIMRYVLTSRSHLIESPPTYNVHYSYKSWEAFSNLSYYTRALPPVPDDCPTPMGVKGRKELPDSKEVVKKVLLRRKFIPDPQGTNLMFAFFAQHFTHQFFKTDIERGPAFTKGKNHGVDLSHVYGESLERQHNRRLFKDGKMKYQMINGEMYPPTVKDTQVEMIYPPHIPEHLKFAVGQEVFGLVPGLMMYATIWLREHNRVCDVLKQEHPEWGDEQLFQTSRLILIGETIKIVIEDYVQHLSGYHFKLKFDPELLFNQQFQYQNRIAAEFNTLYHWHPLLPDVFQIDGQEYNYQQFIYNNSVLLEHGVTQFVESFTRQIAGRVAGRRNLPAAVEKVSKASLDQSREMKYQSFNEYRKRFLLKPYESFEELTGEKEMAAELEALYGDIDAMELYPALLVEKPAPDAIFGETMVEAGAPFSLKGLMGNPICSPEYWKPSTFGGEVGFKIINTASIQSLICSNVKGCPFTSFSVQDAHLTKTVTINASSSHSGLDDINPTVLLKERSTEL

[5] = system: COX-2 promoter; assay: COX-2 promoter luciferase reporter gene assay, transiently transfected RAW 264.7 cells; format: cell-based, murine
Excerpt: Plasmids and DNA Constructs—All plasmids and constructs were obtained or made as reported in either S. H. Rhee and D. Hwang, “Murine TOLL-like receptor 4 confers lipopolysaccaride responsiveness as determined by activation of NFκB and expression of the inducible cyclooxygenase,” Journal of Biological Chemistry, vol. 275, pp. 34035-34040 (2000); and J. Y. Lee et al., “Saturated fatty acids, but not unsaturated fatty acids, induce the expression of cyclooxygenase-2 mediated through TOLL-like receptor 4,” Journal of Biological Chemistry, vol. 276, pp. 16683-16689 (2001). Briefly, the luciferase reporter plasmids (pGL2) containing the promoter region of the murine COX-2 gene (−3201/+93 or −1017/+93) were provided by David Dewitt (Michigan State University, East Lansing, Mich.). To prepare the wild-type COX-2 promoter fragment, polymerase chain reaction (PCR) was performed with the primers named Kpn-COX2-For and Hind-COX2-Rev using the murine COX-2 (−1017/+93) luciferase reporter plasmid as a template. To prepare the mutant COX-2 promoter fragment containing mutated NFκB site, Kpn-COX2-Fmut and Hind-COX2-Rev were used as primers. Each PCR fragment was inserted into the KpnI and HindIII sites of pGL2 to generate the wild-type or mutant COX-2 (−410/+86) luciferase reporter constructs, respectively. Sequences for wild-type NFκB site and the primers were used as reported elsewhere. (See Lee et al., 2001). The 2×NFκB-luciferase reporter construct was a gift from Frank Mercurio (Signal Pharmaceuticals, San Diego, Calif.). HSP70-β-galactosidase reporter plasmid was a gift from Robert Modlin (University of California, Los Angeles, Calif.). The expression plasmids for a constitutively active form of TLR4 (DTLR4) and a dominant-negative mutant, DTLR4 (P712H) were prepared as previously described. See S. H. Rhee et al., 2000. The expression plasmid of the wild-type NFκB-inducing kinase (NIK), pRK-NIK(wt) was a gift from Mike Rothe (Tularik, South San Francisco, Calif.). The dominant-negative mutant of inhibitor kB (pCMV4-IkBa(DN)) was provided by Dean Ballard (Vanderbilt University, Nashville, Tenn.). 4×NFκB-luciferase reporter construct was purchased from Clontech (Palo Alto, Calif.) and used for transient transfection. Heat shock protein 70 (HSP70)-β-galactosidase reporter plasmid was from Robert Modlin (University of Calif., Los Angeles, Calif.). The expression plasmids for a wild-type TLR2 and a dominant-negative mutant [TLR2 (P681H)] were from C. B. Wilson (University of Washington, Seattle, Wash.). Constitutively active chimeric CD4-TLR4 was obtained from C. A. Janeway, Jr. (Yale University, New Haven, Conn.). The constitutively active form of MyD88 (MyD88(ΔToll)) and the dominant-negative mutant, MyD88(ΔDD) were kindly provided by Jurg Tschopp (University of Lausanne, Switzerland). The dominant-negative mutant of mouse PPARg [pCMX-PPARg(L466A/L467A)] was a gift from Ira Schulman (Ligand Pharmaceuticals, San Diego, Calif.). All DNA constructs were prepared in large scale using the EndoFree Plasmid Maxi kit (Qiagen, Chatsworth, Calif.) for transfection.
Transient transfection and luciferase assay—These procedures were performed as described in S. H. Rhee et al., “Murine TOLL-like receptor 4 confers lipopolysaccharide responsiveness as determined by activation of NFκB and expression of the inducible cyclooxygenase,” J. Biol. Chem., vol. 275, pp. 34035-34040 (2000); and J. H. Paik et al., “Two opposing effects of non-steroidal anti-inflammatory drugs on the expression of the inducible cyclooxygenase, Mediation through different signaling pathways,” J. Biol. Chem., vol. 275, pp. 28173-28179 (2000). Briefly, RAW 264.7 cells were plated in 6-well plates (5×10^5 cells/well) and transfected with luciferase reporter plasmids and HSP70-β-galactosidase plasmid as an internal control using SuperFect transfect reagent (Quiagen) according to the manufacturer's instructions. […]

[6] = system: NFκB; assay: NFκB luciferase reporter gene assay, transiently transfected RAW 264.7 cells; format: cell-based, murine; details: PamCAG 1 μg/ml, 18 hr
[7] = molecular target: T2, TLR2 (Homo sapiens, UniProt O60603); assay: NFκB reporter in TLR2-transfected 293T cells; format: cell-based; details: PamCAG 1 μg/ml, 18 hr
T2 construct: expressed in transfected cells; host or cells: 293T (stated not to express TLR2)
T2 sequence (O60603 21-784, species assumed): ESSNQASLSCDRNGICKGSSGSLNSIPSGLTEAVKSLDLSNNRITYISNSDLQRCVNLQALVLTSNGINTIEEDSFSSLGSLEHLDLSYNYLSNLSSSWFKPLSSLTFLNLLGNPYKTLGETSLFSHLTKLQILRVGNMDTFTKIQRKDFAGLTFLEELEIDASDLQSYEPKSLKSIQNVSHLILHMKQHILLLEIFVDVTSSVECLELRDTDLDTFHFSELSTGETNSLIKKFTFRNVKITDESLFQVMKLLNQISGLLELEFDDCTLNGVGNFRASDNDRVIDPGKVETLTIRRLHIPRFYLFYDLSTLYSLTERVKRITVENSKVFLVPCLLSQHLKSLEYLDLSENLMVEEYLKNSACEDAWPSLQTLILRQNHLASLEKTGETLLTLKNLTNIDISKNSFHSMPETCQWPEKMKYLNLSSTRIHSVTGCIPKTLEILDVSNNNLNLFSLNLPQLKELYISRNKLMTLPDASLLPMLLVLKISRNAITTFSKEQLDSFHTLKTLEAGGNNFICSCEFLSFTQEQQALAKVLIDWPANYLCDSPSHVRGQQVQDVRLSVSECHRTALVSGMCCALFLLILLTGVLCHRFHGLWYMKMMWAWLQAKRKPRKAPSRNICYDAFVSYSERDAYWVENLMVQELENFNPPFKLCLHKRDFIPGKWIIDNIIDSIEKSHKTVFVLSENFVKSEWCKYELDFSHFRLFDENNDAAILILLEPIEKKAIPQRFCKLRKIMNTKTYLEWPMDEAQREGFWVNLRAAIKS
Excerpt: Plasmids and DNA Constructs—All plasmids and constructs were obtained or made as reported in either S. H. Rhee and D. Hwang, “Murine TOLL-like receptor 4 confers lipopolysaccaride responsiveness as determined by activation of NFκB and expression of the inducible cyclooxygenase,” Journal of Biological Chemistry, vol. 275, pp. 34035-34040 (2000); and J. Y. Lee et al., “Saturated fatty acids, but not unsaturated fatty acids, induce the expression of cyclooxygenase-2 mediated through TOLL-like receptor 4,” Journal of Biological Chemistry, vol. 276, pp. 16683-16689 (2001). Briefly, the luciferase reporter plasmids (pGL2) containing the promoter region of the murine COX-2 gene (−3201/+93 or −1017/+93) were provided by David Dewitt (Michigan State University, East Lansing, Mich.). To prepare the wild-type COX-2 promoter fragment, polymerase chain reaction (PCR) was performed with the primers named Kpn-COX2-For and Hind-COX2-Rev using the murine COX-2 (−1017/+93) luciferase reporter plasmid as a template. To prepare the mutant COX-2 promoter fragment containing mutated NFκB site, Kpn-COX2-Fmut and Hind-COX2-Rev were used as primers. […]
Acylation by saturated fatty acids of bacterial lipopeptides is also required for the activation of TLR2. […] After 18 hr, luciferase activities were determined. […]

## CCCCC/C=C\C/C=C\C/C=C\C/C=C\CCCC(=O)O [arachidonic acid]
[1]
  COX-2 expression induced by fatty acid (immunoblot): unable to induce COX-2 expression

## CCCCCC/C=C/C=C\CCCCCCCC(=O)O [conjugated linoleic acid, 9(Z), 11(E)-octadecadienoic acid]
[1]
  COX-2 expression induced by fatty acid (immunoblot): unable to induce COX-2 expression

## CC/C=C\C/C=C\C/C=C\C/C=C\C/C=C\C/C=C\CCC(=O)O [docosahexaenoic acid]
[2]
  effect on NFκB activation induced by MyD88: does not inhibit
[3]
  effect on TNFα-induced COX-2 expression (immunoblot): failed to inhibit

## CCCCC/C=C\C/C=C\CCCCCCCC(=O)O [linoleic acid]
[1]
  COX-2 expression induced by fatty acid (immunoblot): unable to induce COX-2 expression
[4]
  effect on COX-2 (inhibition): not as effective

## CCCCCCCCCCCCCC(=O)O [myristic acid]
[4]
  effect on COX-2 (inhibition): No effect

## CCCCCCCC/C=C\CCCCCCCC(=O)O [oleic acid]
[1]
  COX-2 expression induced by fatty acid (immunoblot): unable to induce COX-2 expression
[4]
  effect on COX-2 (inhibition): no effect

## CCCCCCCCCCCCCCCC(=O)O [palmitic acid]
[4]
  effect on COX-2 (inhibition): No effect
[5]; saturated fatty acids C8:0-C18:0, 75 μM each, 24 hr
  COX-2 expression induced by saturated fatty acids (relative luciferase activity): most potent in inducing COX-2 expression

## CCCCCCCCCCCCCCC(=O)O [pentadecanoic acid]
[4]
  effect on COX-2 (inhibition): No effect

## CCCCCCCCCCCCCCCCCC(=O)O [stearic acid]
[4]
  effect on COX-2 (inhibition): No effect

## CC/C=C\C/C=C\C/C=C\CCCCCCCC(=O)O [α-LA, α-linolenic acid]
[4]
  effect on COX-2 (inhibition): Inhibitory effects

## palmitoyl-Cys((RS)-2,3-di(palmitoyloxy)-propyl)-Ala-Gly-OH [PamCAG]
[6]
  NFκB activation (endogenous TLR2): induced
[7]
  TLR2 activation as determined by NFκB activation: activated TLR2
[5]; RAW 264.7, PamCAG 1 μg/ml, 18 hr
  expression of COX-2 (endogenous TLR2): induced
